Laboratory results published in publication PMC9898226, “Emergence of a proton exchange-based isomerization and lactonization mechanism in the plant coumarin synthase COSY” (Nature Communications, 2023).

Legend:
Assay type in all cases: biochemical
[1] = target: T1, SbCOSY (Sorghum bicolor, UniProt C5Z4D6); assay: coupled At4CL1 assay, LC-MS of scopoletin; conditions: substrate made in situ by At4CL1 from 6-hydroxyferulic acid, ATP, CoA, Mg2+; 20 mM HEPES; spontaneous background
T1 construct: gene SORBI_3010G043700
T1 sequence (C5Z4D6 1-456): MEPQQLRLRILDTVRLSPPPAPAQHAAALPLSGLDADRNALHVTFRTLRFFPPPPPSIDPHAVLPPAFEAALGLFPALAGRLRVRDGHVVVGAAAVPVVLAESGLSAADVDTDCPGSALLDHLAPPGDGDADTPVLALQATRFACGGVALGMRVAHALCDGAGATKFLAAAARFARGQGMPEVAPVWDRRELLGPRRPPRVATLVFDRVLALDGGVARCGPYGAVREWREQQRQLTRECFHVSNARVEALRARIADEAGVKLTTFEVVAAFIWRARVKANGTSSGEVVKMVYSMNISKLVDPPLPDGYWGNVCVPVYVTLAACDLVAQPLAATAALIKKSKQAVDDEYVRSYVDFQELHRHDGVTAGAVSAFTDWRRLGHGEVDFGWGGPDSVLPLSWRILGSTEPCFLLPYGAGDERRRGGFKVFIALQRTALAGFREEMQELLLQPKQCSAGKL

[2] = target: T2, StCOSY (Solanum tuberosum, UniProt M0ZYT4); assay: coupled At4CL1 assay, LC-MS of scopoletin; conditions: substrate made in situ by At4CL1 from 6-hydroxyferulic acid, ATP, CoA, Mg2+; 20 mM HEPES; spontaneous background
T2 sequence (M0ZYT4 1-444): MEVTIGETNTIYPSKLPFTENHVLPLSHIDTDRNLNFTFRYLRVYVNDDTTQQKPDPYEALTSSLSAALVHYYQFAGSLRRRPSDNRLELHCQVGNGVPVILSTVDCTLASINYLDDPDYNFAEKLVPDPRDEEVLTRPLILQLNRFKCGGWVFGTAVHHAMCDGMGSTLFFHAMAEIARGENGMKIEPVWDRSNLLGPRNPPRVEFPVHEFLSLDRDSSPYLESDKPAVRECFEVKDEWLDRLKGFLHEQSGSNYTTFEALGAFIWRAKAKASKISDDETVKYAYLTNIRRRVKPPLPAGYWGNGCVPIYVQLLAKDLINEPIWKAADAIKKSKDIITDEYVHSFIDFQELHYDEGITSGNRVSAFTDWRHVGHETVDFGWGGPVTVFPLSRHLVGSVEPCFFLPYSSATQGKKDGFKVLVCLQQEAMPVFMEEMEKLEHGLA

[3] = target: T3, AtCOSY (Arabidopsis thaliana, UniProt Q8LF28); assay: coupled At4CL1 assay, LC-MS of scopoletin; conditions: substrate made in situ by At4CL1 from 6-hydroxyferulic acid, ATP, CoA, Mg2+; 20 mM HEPES; spontaneous background
T3 construct: gene COSY; N-terminal 8xHis tag with TEV site (pHis8-4), tag cleaved; E. coli BL21(DE3); domains 1-181, 182-229, 230-451
T3 sequence (Q8LF28 1-451): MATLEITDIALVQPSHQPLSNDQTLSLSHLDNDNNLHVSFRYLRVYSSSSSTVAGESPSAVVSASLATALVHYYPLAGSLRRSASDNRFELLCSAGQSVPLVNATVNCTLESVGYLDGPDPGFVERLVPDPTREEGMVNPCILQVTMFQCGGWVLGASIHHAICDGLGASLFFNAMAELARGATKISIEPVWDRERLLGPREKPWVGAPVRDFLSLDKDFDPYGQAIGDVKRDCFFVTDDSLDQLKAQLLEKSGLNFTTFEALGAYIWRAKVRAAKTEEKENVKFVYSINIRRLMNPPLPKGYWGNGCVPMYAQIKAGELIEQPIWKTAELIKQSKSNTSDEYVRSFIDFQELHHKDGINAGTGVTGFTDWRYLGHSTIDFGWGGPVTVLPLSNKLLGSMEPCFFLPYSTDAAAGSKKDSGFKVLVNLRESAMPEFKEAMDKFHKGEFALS

[4] = target: T4, GmCOSY (Glycine max, UniProt A0A0R0H5A1); assay: coupled At4CL1 assay, LC-MS of scopoletin; conditions: substrate made in situ by At4CL1 from 6-hydroxyferulic acid, ATP, CoA, Mg2+; 20 mM HEPES; spontaneous background
T4 construct: gene LOC100817021
T4 sequence (A0A0R0H5A1 1-452): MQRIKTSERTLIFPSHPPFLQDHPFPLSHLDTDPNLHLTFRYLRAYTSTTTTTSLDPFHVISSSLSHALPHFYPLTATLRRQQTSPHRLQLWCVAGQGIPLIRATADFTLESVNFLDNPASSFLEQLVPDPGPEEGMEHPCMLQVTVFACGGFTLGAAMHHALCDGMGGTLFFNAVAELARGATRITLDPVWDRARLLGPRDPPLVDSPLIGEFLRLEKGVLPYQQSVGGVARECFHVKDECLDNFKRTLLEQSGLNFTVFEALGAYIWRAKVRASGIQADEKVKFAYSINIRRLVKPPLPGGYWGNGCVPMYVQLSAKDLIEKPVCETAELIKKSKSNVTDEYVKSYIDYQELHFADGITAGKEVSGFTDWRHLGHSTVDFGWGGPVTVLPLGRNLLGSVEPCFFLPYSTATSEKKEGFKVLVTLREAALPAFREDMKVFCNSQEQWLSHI

[5] = target: T3, AtCOSY; assay: coupled At4CL1 assay, LC-MS of umbelliferone; conditions: substrate made in situ by At4CL1 from 2-hydroxy-p-coumaric acid (CAS 614-86-8), ATP, CoA, Mg2+; 20 mM HEPES

COc1cc(/C=C/C(=O)SCCNC(=O)CCNC(=O)[C@H](O)C(C)(C)COP(=O)(O)OP(=O)(O)OC[C@H]2O[C@@H](n3cnc4c(N)ncnc43)[C@H](O)[C@@H]2OP(=O)(O)O)c(O)cc1O [6-hydroxyferuloyl-CoA]
coupled At4CL1 assay, LC-MS of scopoletin [1]: GmCOSY, StCOSY and SbCOSY contain coumarin synthase activity comparable to that of AtCOSY
coupled At4CL1 assay, LC-MS of scopoletin [2]: GmCOSY, StCOSY and SbCOSY contain coumarin synthase activity comparable to that of AtCOSY
coupled At4CL1 assay, LC-MS of scopoletin [3]: addition of AtCOSY resulted in significant acceleration of coumarin production
coupled At4CL1 assay, LC-MS of scopoletin [4]: GmCOSY, StCOSY and SbCOSY contain coumarin synthase activity comparable to that of AtCOSY

CC(C)(COP(=O)(O)OP(=O)(O)OC[C@H]1O[C@@H](n2cnc3c(N)ncnc32)[C@H](O)[C@@H]1OP(=O)(O)O)[C@@H](O)C(=O)NCCC(=O)NCCSC(=O)/C=C/c1ccc(O)cc1O [2-hydroxy-p-coumaroyl CoA]
coupled At4CL1 assay, LC-MS of umbelliferone [5]: addition of AtCOSY resulted in significant acceleration of coumarin production
